Several values for one entry are separate records, joined by “and”; a condition that tells them apart may be missing. Identical values can stand only once. Entries after “also recorded” stand apart in the source; their conditions may differ.
Experiments:
BAE cells [1] = test: BAE cell proliferation assay (MTT, 72 h); format: cell-based, bovine
Procedure: (§1) BAE cells were from Cell Applications, San Diego, Calif. and BxPC-3, HT1080, LLC, PANC-1, MCF-7, HCT116 and K562 cells were from ATCC, Bethesda, Md. NB4 and MDCK2 cells were from Shane Supple (Kanematsu Laboratories, Royal Prince Alfred Hospital, Sydney, Australia) and P. Borst (The Netherlands Cancer Institute, Amsterdam, The Netherlands). BAE, HT1080, Panc-1, MCF-7, HCT116, MDCK2 and LLC cells were cultured in DMEM. NB4, K562 and BxPC-3 cells were cultured in RPMI medium. The cells were supplemented with 10% foetal calf serum (FBS), 2 mM L-glutamine, and 1 U·mL-1 penicillin/streptomycin. Cell culture plasticware was from Techno Plastic Products (Trasadingen, Switzerland). All other cell culture reagents were from Gibco (Gaithersburg, Md.).
(§2) Adherent cells were allowed to adhere overnight.

BAE cells [2] = test: BAE cell viability / cytotoxicity (propidium iodide flow cytometry); format: cell-based, bovine; conditions: read-out: IC50 for loss of viability
Description: as §2

[3] = system: NB4 cells (acute promyelocytic leukaemia); test: NB4 cell proliferation assay (MTT, 72 h); format: cell-based, human
Procedure: as §1, §2

[4] = system: K562 cells (chronic myelogenous leukaemia); test: K562 cell proliferation assay (MTT, 72 h); format: cell-based; conditions: K562, human chronic myelogenous leukaemia; read-out: IC50 for proliferation arrest
Procedure: as §1, §2

[5] = system: MDCK2 cells (kidney epithelial); test: MDCK2 cell proliferation assay (MTT, 72 h); format: cell-based, dog
Procedure: as §1, §2

[6] = system: HT1080 cells (fibrosarcoma); test: HT1080 cell proliferation assay (MTT, 72 h); format: cell-based; conditions: HT1080, human fibrosarcoma; read-out: IC50 for proliferation arrest
Procedure: as §1, §2

[7] = system: LLC cells (lung carcinoma); test: LLC cell proliferation assay (MTT, 72 h); format: cell-based, human; conditions: mouse Lewis lung carcinoma, read-out: IC50 for proliferation arrest
Procedure: as §1, §2

[8] = system: HCT1116 cells (colorectal carcinoma); test: HCT116 cell proliferation assay (MTT, 72 h); format: cell-based; conditions: HCT1116, human colorectal carcinoma; read-out: IC50 for proliferation arrest
Procedure: as §1, §2

[9] = system: BxPC-3 cells (pancreatic carcinoma); test: BxPC-3 cell proliferation assay (MTT, 72 h); format: cell-based; conditions: BxPC-3, human pancreatic carcinoma; read-out: IC50 for proliferation arrest
Procedure: as §1, §2

[10] = system: isolated rat liver mitochondria; test: Mitochondrial swelling assay (mitochondrial permeability transition); format: biochemical; conditions: 100 μM
Procedure: Mitochondria were isolated from the livers of ˜250 g male Wistar rats using differential centrifugation as previously described (Dilda et al., 2005a; Don et al., 2003). The final mitochondrial pellet was resuspended in 3 mM HEPES-KOH, pH 7.0 buffer containing 213 mM mannitol, 71 mM sucrose and 10 mM sodium succinate at a concentration of 30 mg of protein per mL. Mitochondrial permeability transition induction was assessed spectrophotometrically by suspending the liver mitochondria at 0.5 mg of protein per mL at 25° C. in 3 mM HEPES-KOH, pH 7.0 buffer containing 75 mM mannitol, 250 mM sucrose, 10 mM sodium succinate, and 2 μM rotenone. Swelling was measured by monitoring the associated decrease in light scattering at 520 nm using a SpectraMax Plus microplate reader (Molecular Devices, Palo Alto, Calif.).

[11] = system: organic anion transporting polypeptide (OATP); test: OATP studies with inhibitor DIDS in BAE cells; format: cell-based, bovine
Procedure: 750,000 BAE cells were seeded in 6 well plates containing DMEM with 10% fetal calf serum and allowed to adhere overnight. Cells were pretreated or not with 500 μM 4,4′-diisothiocyanostilbene-2,2′-disulfonic acid (DIDS) for 30 min and then incubated with 20 μM (S)-Penicillamine arsenoxide for 2 h at 37° C. and 5% CO2. Cells were then washed twice with ice-cold PBS and lysed with 70% nitric acid. Cellular arsenic levels were determined by ICPMS. 5000 BAE cells were seeded in 96 well plates containing DMEM with 10% fetal calf serum and allowed to adhere overnight. Cells were pretreated or not with 300 μM DIDS for […] and then incubated with 1.5 μM (S)-Penicillamine arsenoxide for 24 h at 37° C. and 5% CO2. Cell viability was determined using MTT.

BAE cells [12] = test: BAE proliferation with glutathione depletion by BSO; format: cell-based, bovine; conditions: BAE cells co-treated with BSO, 72 h
Procedure: FIG. 12. Depletion of cellular glutathione increases (S)-Penicillamine-arsenoxide anti-proliferative activity. BAE cells were co-treated with (S)-Penicillamine-arsenoxide and the indicated concentrations of BSO for 72 h and the IC50 for proliferation arrest was calculated.
Treatment of BAE cells with glutathione reduced GSAO inhibition of BAE cell proliferation, while blocking de novo synthesis of glutathione with buthionine sulfoximine (BSO), an inhibitor of the γ-glutamyl cysteine synthase, enhanced the proliferation arrest by almost 100-fold (Dilda et al., 2005b).

[13] = system: human BxPC-3 pancreatic carcinoma tumours; test: Primary tumor growth assay, BxPC-3 tumours in BalbC nude mice; format: in vivo, mouse; conditions: for tumour doubling time: subcutaneous micro-osmotic pump, 28 day
Procedure: Female 7 to 9 week old Balb C nude mice were used (UNSW Biological Resource Centre). Mice were held in groups of 3 to 5 at a 12 h day and night cycle and were given animal chow and water ad libidum. A suspension of 2×10^6 BxPC-3 cells in 0.2 mL of PBS was injected subcutaneously in the proximal midline. Tumors were allowed to establish and grow to a size of ˜50 mm^3 after which they were randomized into four groups. Tumor volume was calculated using the relationship length×height×width×0.523. Tumor doubling time (TD) was calculated from the tumor growth rate curve during exponential growth using the formula […], where VF is final tumor volume and VI is initial tumor volume (Wolff et al., 2004). Animals were implanted with 28 day alzet model 1004 micro-osmotic pumps (ALZA Corporation, Palo Alto, Calif.) subcutaneously in the flank. The pumps delivery 0.25, 0.5 or 1 mg/kg/day (S)-Penicillamine arsenoxide in 100 mM glycine. Tumor volume and animal weight was measured every 2 or 3 days.
BalbC nude mice bearing subcutaneous human BxPC-3 pancreatic carcinoma tumours in the proximal midline were implanted with 28 day micro-osmotic alzet pumps subcutaneously in the flank. The pumps delivered 0.25, 0.5 or 1 mg per kg per day (S)-Penicillamine arsenoxide. […] The tumour doubling times are 9.2, 8.3, 13.9 and 16.2 days for groups treated with vehicle (100 mM glycine) or 0.25, 0.5 and 1 mg/kg/day (S)-Penicillamine arsenoxide, respectively.

## CC(C)(SCC(=O)Nc1ccc([As](O)O)cc1)[C@@H](N)C(=O)O [(S)-Penicillamine-arsenoxide, 4-(N—(S-penicillaminylacetyl)amino)phenylarsinous acid]
BAE cells [1]
  times more effective than GSAO at blocking proliferation and reducing the viability of endothelial cells: ~25 times
BAE cells [1]; 72 h, read-out: IC50 for proliferation arrest
  IC50: 400 nM and 430 nM
BAE cells [2]
  IC50: 3500 nM
[3]; NB4, human acute promyelocytic leukaemia, read-out: IC50 for proliferation arrest
  IC50: 700 nM
[3]; NB4 cells, 72 h
  effects on APL cells compared to arsenic trioxide: equivalent to arsenic trioxide; also recorded: as good an inhibitor of APL cell proliferation as arsenic trioxide
[4]
  IC50: 1400 nM
[5]; BAE vs MDCK2
  sensitivity of BAE cells relative to kidney epithelial cells: 5.6 fold
[5]; MDCK2, dog kidney epithelial, read-out: IC50 for proliferation arrest
  IC50: 2400 nM
[6]
  IC50: 4000 nM
[7]
  IC50: 5000 nM
[8]
  IC50: 6000 nM
[9]
  IC50: 13000 nM
[10]
  time for half-maximal swelling of isolated mitochondria, times faster compared to GSAO: approximately 4 times
[11]; 300 μM DIDS, then 1.5 μM compound 24 h
  effect of DIDS on anti-proliferative activity: reduces its anti-proliferative activity
[11]; 500 μM DIDS 30 min, then 20 μM compound 2 h
  effect of DIDS on uptake: inhibits (S)-Penicillamine arsenoxide uptake
BAE cells [12]
  enhancement of IC50 for proliferation arrest by BSO: approximately 25 fold
[13]; 0.25 mg/kg/day
  tumour doubling time: 8.3 days
[13]; 0.5 mg/kg/day
  tumour doubling time: 13.9 days
[13]; 1 mg/kg/day
  tumour doubling time: 16.2 days
[13]; 0.25, 0.5 or 1 mg per kg per day
  growth of the BxPC-3 tumours: significantly inhibited
[13]; highest dose animals
  accumulation of connective tissue, mice affected: 1 mouse
  skin necrosis at the delivery site, mice affected: 3 of the 10
[13]; highest dose animals (1 mg/kg/day)
  skin toxicity at pump delivery site: some skin toxicity at the pump delivery site
[13]; lower doses
  findings at delivery site at the lower doses: some evidence of accumulation of connective tissue at the delivery site in the occasional mouse
[13]; not shown
  animal weight versus vehicle: no change in the weight

From patent publication US9765101B2, “Organo-arsenoxide compounds and use thereof” (NewSouth Innovations Pty Limited, priority 2006, dated 2017)
